Biological target: Protein kinase C alpha type (Rattus norvegicus, UniProt P05696)
Experiment: Mixed Micelle Assay
Conditions: pH 7.5; 30 °C
Excerpt: The triton X-100 assay previously described by Bell and co-workers were used to measure enzyme activity.

Structure (SMILES)	IC50 [µM]
CC(C)CCCC(C)C1CCC2C3CC=C4CC(C(=O)NCCN(C)C)CCC4(C)C3CCC12C (stereo not drawn) [Amphiphile, III]	258
CC(C)CCCC(C)C1CCC2C3CC=C4CC(C(=O)NCC[N+](C)(C)C)CCC4(C)C3CCC12C (stereo not drawn) [Amphiphile, IV]	12
CC(C)CCCC(N)C1CCN2C3OC=C4CC(OC(=O)CCC(=O)NCC[N+](C)(C)C)CCC4(C)C3CCC12C (stereo not drawn) [Amphiphile, IX]	59
CC(C)CCCC(N)C1CCN2C3OC=C4CC(OC(=O)CCC(=O)NCCN(C)C)CCC4(C)C3CCC12C (stereo not drawn) [Amphiphile, VIII]	191
CC(C)CCCC(C)C1CCC2C3CC=C4CC(C(=O)NCCN)CCC4(C)C3CCC12C (stereo not drawn) [Amphiphile, VII]	246
CC(C)CCCC(C)C1CCC2C3CC=C4CC(C(=O)OC(CN(C)C)C[N+](C)(C)C)CCC4(C)C3CCC12C (stereo not drawn) [Amphiphile, VI]	11
CC(C)CCCC(C)C1CCC2C3CC=C4CC(C(=O)OC(CN(C)C)CN(C)C)CCC4(C)C3CCC12C (stereo not drawn) [Amphiphile, V]	643
CC(C)CCCC(N)C1CCN2C3OC=C4CC(OC(=O)CCC(=O)OCCN(C)CC[N+](C)(C)C)CCC4(C)C3CCC12C (stereo not drawn) [Amphiphile, XIII]	20
CC(C)CCCC(N)C1CCN2C3OC=C4CC(OC(=O)CCC(=O)OCCN(C)CCN(C)C)CCC4(C)C3CCC12C (stereo not drawn) [Amphiphile, XII]	164
CC(C)CCCC(N)C1CCN2C3OC=C4CC(OC(=O)CCC(=O)OC(CN(C)C)C[N+](C)(C)C)CCC4(C)C3CCC12C (stereo not drawn) [Amphiphile, XI]	15
CCCCCCCCCCCCCCCCCCCCCCCC(=O)OC(CN(C)C)C[N+](C)(C)C (stereo not drawn) [Amphiphile, XVII]	40
CCCCCCCCCCCCCCCCCCCCCC(=O)OC(CN(C)C)C[N+](C)(C)C (stereo not drawn) [Amphiphile, XVI]	26
CC(C)CCCC(N)C1CCN2C3OC=C4CC(OC(=O)CCC(=O)OC(CN(C)C)CN(C)C)CCC4(C)C3CCC12C (stereo not drawn) [Amphiphile, X]	408
